Source: patent US5010086A, “Imidazopyridines, compositions and use” (Sterling Drug Inc., priority 1990, dated 1991)

Legend:
Assay type in all cases: biochemical, canine
PDE III [1] = biological target: T1, PDE III (Canis lupus familiaris, UniProt A0A8I3NYE0); test: phosphodiesterase inhibition, PDE III (peak III PDE); conditions: read-out: Percent Inhibition PDE III
T1 construct: isolated from canine aortic smooth, ventricular or tracheal smooth muscle sources; from tissue; host or cells: canine aortic smooth, ventricular or tracheal smooth muscle; DEAE-cellulose peak III
T1 sequence (A0A8I3NYE0 1-1135): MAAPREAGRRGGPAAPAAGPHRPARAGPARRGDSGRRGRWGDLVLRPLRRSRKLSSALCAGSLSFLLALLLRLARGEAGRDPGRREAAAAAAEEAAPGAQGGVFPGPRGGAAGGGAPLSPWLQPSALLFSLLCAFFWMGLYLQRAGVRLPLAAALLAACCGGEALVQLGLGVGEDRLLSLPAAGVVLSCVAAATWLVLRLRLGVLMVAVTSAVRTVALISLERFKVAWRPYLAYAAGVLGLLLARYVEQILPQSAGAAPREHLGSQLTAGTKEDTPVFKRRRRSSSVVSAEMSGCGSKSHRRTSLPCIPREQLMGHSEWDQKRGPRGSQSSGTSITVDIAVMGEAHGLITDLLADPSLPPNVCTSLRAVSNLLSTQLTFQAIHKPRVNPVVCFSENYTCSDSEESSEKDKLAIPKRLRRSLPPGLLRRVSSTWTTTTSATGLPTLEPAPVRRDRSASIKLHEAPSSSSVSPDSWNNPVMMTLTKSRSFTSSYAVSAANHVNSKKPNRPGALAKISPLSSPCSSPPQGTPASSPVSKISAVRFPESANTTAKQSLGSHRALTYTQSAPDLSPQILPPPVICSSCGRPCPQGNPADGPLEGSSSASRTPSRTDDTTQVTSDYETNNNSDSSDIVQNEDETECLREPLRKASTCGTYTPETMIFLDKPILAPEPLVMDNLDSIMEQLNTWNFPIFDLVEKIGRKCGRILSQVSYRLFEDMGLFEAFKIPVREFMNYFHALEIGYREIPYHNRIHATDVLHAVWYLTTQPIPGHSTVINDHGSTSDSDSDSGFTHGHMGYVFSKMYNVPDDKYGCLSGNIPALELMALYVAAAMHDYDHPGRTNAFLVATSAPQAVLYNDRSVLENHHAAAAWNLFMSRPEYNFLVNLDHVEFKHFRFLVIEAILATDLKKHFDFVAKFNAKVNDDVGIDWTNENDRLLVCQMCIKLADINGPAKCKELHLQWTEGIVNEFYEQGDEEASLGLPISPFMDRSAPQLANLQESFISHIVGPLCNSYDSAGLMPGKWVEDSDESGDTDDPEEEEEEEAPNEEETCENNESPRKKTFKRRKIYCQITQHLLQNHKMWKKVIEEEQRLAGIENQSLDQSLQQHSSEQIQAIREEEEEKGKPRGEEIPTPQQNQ

PDE I [2] = test: phosphodiesterase inhibition, PDE I (peak I PDE)
PDE III [3] = biological target: T1, PDE III; test: phosphodiesterase inhibition, PDE III (peak III PDE)
Excerpt: (§1) Multiple isozymic forms of cyclic nucleotide phosphodiesterase (PDE) exist in most tissues. […] A "low Km" cGMP form of PDE (also referred to as peak I PDE) also has been identified. Increases in cAMP and cGMP will relax both vascular smooth and bronchial smooth muscle. Selective PDE isozyme inhibition represents a novel subcellular mechanism by which increses in cAMP or cGMP and subsequent vaso- or broncho-relaxation may be achieved. Moreover, a component of positive inotropy may be retained, dependent upon the isozyme or tissue source specificity of an inhibitor. Thus, development of PDE isozyme inhibitors represents novel approaches for the discovery of agents useful for treating hypertension, congestive heart failure or asthma. For example, compounds having essentially high PDE III inhibitory activity are expected to have cardiotonic and vasodilatory (antihypertensive) activity. PDE isozymes (peak I and III) are isolated from canine aortic smooth, ventricular or tracheal smooth muscle sources by DEAE - cellulose column chromatography. Inhibition of both peaks by a putative inhibitor from any of these sources is quantitated. If ≥50% inhibition is detected at 30 μM, then an IC50 value and corresponding 95% confidence limits for both peaks is determined.
(§2) The procedures for the separation of the isozymes of PDE from animal tissue and the testing of the compounds of the invention for phosphodiesterase inhibition are essentially those described by Weishaar et al., Biochem. Pharmacol. 35:787-800 (1986) and Thompson et al., Adv. Cyclic Nucleotide Res. 10:69-92. Initial screening of test compounds with both peak I and peak III PDE isozymes is done at a concentration of 10, 30 or 100 μm, and each assay is performed in triplicate for each inhibitor. The IC50 values (concentration causing 50% inhibition) are then calculated from concentration-response curves as described by Tallarida and Murray, Manual of Pharmacologic Calculations with Computer Programs, Procedure 8, Graded Dose-Response, pp. 14-19, Springer-Verlag, New York, 1981.

PDE I [4] = test: phosphodiesterase inhibition, PDE I (peak I PDE); conditions: for IC50: peak I PDE
Excerpt: as §1, §2

SMILES	IC50 (PDE III [3])	IC50 (PDE I [4])	also measured
CCCCC(=O)Nc1ccc(-c2cc3[nH]c(=O)[nH]c3nc2C)cc1 [Example 11, 6-[4-(Butanecarbonylamino)phenyl]-1,3-dihydro-5-methyl-2H-imidazo[4,5-b]pyridin-2-one]			inhibition at 1 µM (PDE III [1]): 37%; Percent Inhibition PDE I (PDE I [2]; at 1 μM): 0%
Cc1nc2[nH]c(=O)[nH]c2cc1-c1ccc(NS(=O)(=O)c2cccc3cccnc23)cc1 [Example 14, 1,3-Dihydro-6-[4-(8-quinolinylsulfonylamino)phenyl]-5-methyl-2H-imidazo[4,5-b]pyridin-2-one]	55 nM	1600 nM	
CCCCCCS(=O)(=O)Nc1ccc(-c2cc3[nH]c(=O)[nH]c3nc2C)cc1 [Example 13, 1,3-Dihydro-6-[4-(hexanesulfonylamino)phenyl]-5-methyl-2H-imidazo[4,5-b]pyridin-2-one]	53 nM	5600 nM	
Cc1nc2[nH]c(=O)[nH]c2cc1-c1ccccc1 [4(c), 1,3-Dihydro-5-methyl-6-phenyl-2H-imidazo[4,5-b]pyridin-2-one]	270 nM		Percent Inhibition PDE I (PDE I [2]; at 1000 μM): 38%
Cc1nc2[nH]c(=O)[nH]c2cc1-c1ccc(NS(C)(=O)=O)cc1 [Example 9, 1,3-Dihydro-6-[4-(methanesulfonylamino)phenyl]-5-methyl-2H-imidazo[4,5-b]pyridin-2-one]	470 nM	45000 nM	
Cc1nc2[nH]c(=O)[nH]c2cc1-c1ccc(NC(=O)C(F)(F)F)cc1 [Example 7, 1,3-Dihydro-5-methyl-6-[4-(trifluoroacetylamino)phenyl]-2H-imidazo[4,5-b]pyridin-2-one]	630 nM	63600 nM	
Cc1nc2[nH]c(=O)[nH]c2cc1-c1ccc(N)cc1 [Example 6, 6-(4-Aminophenyl)-1,3-dihydro-5-methyl-2H-imidazo[4,5-b]pyridin-2-one]	500 nM	45000 nM	
O=c1[nH]c2cc(-c3ccncc3)c(C(F)(F)F)nc2[nH]1 [1(e), 1,3-Dihydro-6-(4-pyridinyl)-5-trifluoromethyl-2H-imidazo[4,5-b]pyridin-2-one]	23 nM	52900 nM	
O=c1[nH]c2cc(-c3ccnc4ccccc34)c(C(F)(F)F)nc2[nH]1 [3(e), 1,3-Dihydro-6-(4-quinolinyl)-5-trifluoromethyl-2H-imidazo[4,5-b]pyridine-2-one]			Percent Inhibition PDE I (PDE I [4]; at 100 μM): 4%; inhibition at 1 µM (PDE III [1]): 9%
O=c1[nH]c2cc(-c3cc[n+]([O-])cc3)c(C(F)(F)F)nc2[nH]1 [1(f), 1,3-Dihydro-6-(4-pyridinyl)-5-trifluoromethyl-2H-imidazo[4,5-b]pyridin-2-one N-(py)-oxide]	29 nM		Percent Inhibition PDE I (PDE I [2]; at 1 μM): 0%
CC(=O)Nc1ccc(-c2cc3[nH]c(=O)[nH]c3nc2C)cc1 [Example 8, 6-[4-(Acetylamino)phenyl]-1,3-dihydro-5-methyl-2H-imidazo[4,5-b]pyridin-2-one]	620 nM		Percent Inhibition PDE I (PDE I [4]; at 30 μM): 22%
CCCNC(=O)Nc1ccc(-c2cc3[nH]c(=O)[nH]c3nc2C)cc1 [Example 15, 1,3-Dihydro-6-[4-(N'-propylureido)phenyl]-5-methyl-2H-imidazo[4,5-b]pyridin-2-one]	104 nM	319000 nM	
Cc1nc2[nH]c(=O)[nH]c2cc1-c1ccc([N+](=O)[O-])cc1 [Example 5, 1,3-Dihydro-5-methyl-6-(4-nitrophenyl)-2H-imidazo[4,5-b]pyridin-2-one]	9 nM		Percent Inhibition PDE I (PDE I [2]; at 300 μM): 35%
O=c1[nH]c2cc(-c3ccncc3)c(C(F)(F)C(F)(F)F)nc2[nH]1 [2(d), 1,3-Dihydro-6-(4-pyridinyl)-5-pentafluoroethyl-2H-imidazo[4,5-b]pyridin-2-one]	1800 nM	12000 nM	
CCCCS(=O)(=O)Nc1ccc(-c2cc3[nH]c(=O)[nH]c3nc2C)cc1 [Example 10, 6-[4-(Butanesulfonylamino)phenyl]-1,3-dihydro-5-methyl-2H-imidazo[4,5-b]pyridin-2-one]	94 nM	9000 nM	
Cc1ccc(S(=O)(=O)Nc2ccc(-c3cc4[nH]c(=O)[nH]c4nc3C)cc2)cc1 [Example 12, 1,3-Dihydro-5-methyl-6-[4-(p-toluenesulfonylamino)phenyl]-2H-imidazo[4,5-b]pyridin-2-one]			inhibition at 1 µM (PDE III [1]): 64%; Percent Inhibition PDE I (PDE I [2]; at 1 μM): 13%
